# Measurements from patent US11903981B2, “Use of Anaerofustis stercorihominis in preventing and/or treating metabolic diseases” (priority 2018, dated 2024).
# Marks after values point to notes of the source that are not given here.
# What was measured:
# Assay type in all cases: in vivo
# [1] = system: obesity mice model (C57BL/6 male mice, high-fat feed); assay: Obesity animal model (high-fat feed), body weight; conditions: bacterial solution 1×10^8 cfu/ml by gavage; for Weight of mice, Week 9: Week 9, *P<0.05 relative to model group
# Description: The obesity animal model is constructed by using C57BL/6 male mice (purchased from Guangdong Medical Experimental Animal Center) at 8 weeks old and 20±2 g of body weight, which is housed in a specific pathogen free (SPF) environment and access to food and water ad lib. The mice are randomly divided into 5 groups, with 10 mice in each group.
# Bacterial agent group 1: mice were fed with high-fat feed every day, in which the AM25-6 bacterial solution (1×10^8 cfu/ml) was administered by gavage for 9 weeks after 4 weeks of feeding high-fat feed;
# Bacterial agent group 2: mice were fed with high-fat feed every day, in which the DSM 17244 bacterial solution (1×10^8 cfu/ml) was administered by gavage for 9 weeks after 4 weeks of feeding high-fat feed;
# Bacterial agent group 3: mice were fed with high-fat feed every day, in which the DSM 28733 bacterial solution (1×10^8 cfu/ml) was administered by gavage for 9 weeks after 4 weeks of feeding high-fat feed;
# Obesity model group: mice were fed with high-fat feed every day, in which the culture medium in a same amount was administered by gavage for 9 weeks after 4 weeks of feeding high-fat feed.
# During the experimental period, experimental data such as the body weight, body condition and food intake amount of mice were recorded every week. After the completion of experiment, the mice were sacrificed, and the fat weight was recorded and the serum was collected for detecting blood lipids by using the Elisa kit.
# [2] = system: T2D mice model (C57bL/6 mice); assay: T2D animal model (STZ plus high-fat feed), body weight; conditions: gavage
# Description: (§1) The T2D animal model is constructed by using C57bL/6 mice (purchased from Guangdong Medical Experimental Animal Center) at 8 weeks old and 20±2 g of body weight. The mice were housed in a specific pathogen free (SPF) environment and adaptively fed for 1 week, followed by grouping and modeling. The T2D animal model is induced by injection of streptozotocin (STZ) along with feeding high-fat feed, and the mice having fasting blood glucose (FBG) reaching to 10 mM/L can be used as a T2D mice model. Fifty mice selected for experiments are randomly divided into 5 groups.
# (§2) Bacterial agent group 1: the T2D mice model was administered with the AM25-6 bacterial solution (1×10^8 cfu/ml) by gavage;
# (§3) Bacterial agent group 2: the T2D mice model was administered with the DSM 17244 bacterial solution (1×10^8 cfu/ml) by gavage;
# (§4) Bacterial agent group 3: the T2D mice model was administered with the DSM 28733 bacterial solution (1×10^8 cfu/ml) by gavage;
# (§5) Metformin treatment group: the T2D mice model was treated with the positive drug metformin.
# (§6) The experiment was carried out based on the different groups. After the construction of T2D mice model (i.e., FBG>10), the treatment was started and lasted for 2 months. The food intake amount and body weight of mice were recorded daily. Blood of mice was collected from the tail vein every week for detection of fasting blood glucose. The oral glucose tolerance test (OGTT) of mice was measured at week 4 of treatment and at the end of the experiment.
# [3] = system: T2D mice model (C57bL/6 mice); assay: T2D animal model, fasting blood glucose
# Description: as §1, §2, §3, §4, §5, §6
# [4] = system: T2D mice model (C57bL/6 mice); assay: T2D animal model, oral glucose tolerance test (OGTT); conditions: for Blood glucose in OGTT, 0 minute: 0 minute after glucose by gavage; for Blood glucose in OGTT, 30 minutes: 30 minutes after glucose by gavage; for Blood glucose in OGTT, 60 minutes: 60 minutes after glucose by gavage; for Blood glucose in OGTT, 90 minutes: 90 minutes after glucose by gavage; for Blood glucose in OGTT, 120 minutes: 120 minutes after glucose by gavage
# Description: as §1, §6
# The results of oral glucose tolerance test (OGTT) for mice shown in Table 8 indicate that the blood glucose of mice reaches the highest level (i.e., 17.8-23.1 mmol/L) at 30 minutes upon administration of glucose by gavage. […] From the perspective of overall glucose tolerance process, it can be seen that Anaerofustis stercorihominis can effectively ameliorate glucose intolerance in diabetic mice.
# [5] = system: C57bL/6 mice fed with high-fat feed; assay: Hyperlipidemia animal model (high-fat feed), blood lipids and blood viscosity; conditions: for blood viscosity: carotid artery blood, hemorheological examination; for HDLC (high-density lipoprotein) / LDLC (low-density lipoprotein) / TC (total cholesterol) / TG (triglyceride): serum, bacterial solution 2 ml 1×10^9 cfu/ml daily or tablets 0.6 g/kg
# Description: Sixty C57bL/6 mice (purchased from Guangdong Medical Experimental Animal Center) at 6 weeks old were used in this experiment, which were normally fed in a Specific pathogen Free (SPF) environment. The mice were adaptively fed for 1 week and then randomly divided into 6 groups, with 10 mice in each group. The animal model is constructed along with intervention.
# Bacterial agent group 1: the mice were fed with high-fat feed and 2 ml of AM25-6 bacterial solution (1×10^9 cfu/ml) daily;
# Bacterial agent group 2: the mice were fed with high-fat feed and 2 ml of DSM 17244 bacterial solution (1×10^9 cfu/ml) daily;
# Bacterial agent group 3: the mice were fed with high-fat feed and 2 ml of DSM 28733 bacterial solution (1×10^9 cfu/ml) daily;
# Tongmai Jiangzhi tablet group (a positive drug for the treatment of hyperlipidemia): the mice were fed with high-fat feed and 0.6 g/kg Tongmai Jiangzhi tablets;
# Experimental data such as the body condition, food intake amount and the like of mice was recorded every week before and after the intervention of the model. After the completion of experiment, the mice were sacrificed, and the fat content was recorded, the serum was collected for detection of blood lipid contents (including total cholesterol (TC), triglyceride (TG), high-density lipoprotein (HDLC) and low-density lipoprotein (LDLC)) in the serum according to the instruction of kit. Blood from the last carotid artery was taken for hemorheological examination.
# [6] = system: SD rats, myocardial ischemia induced by pituitrin; assay: Experimental myocardial ischemia in rats induced by pituitrin, ST-segment displacement; conditions: gavage daily for 10 days, pituitrin 1 unit/kg iv., **P<0.01, *P<0.05 relative to model group
# Description: Fifty SD rats (purchased from Guangdong Medical Experimental Animal Center, half male and half female) at 180-220 g of body weight and 6 weeks old were used in this experiment, which were normally fed in a Specific pathogen Free (SPF) environment. The rats were adaptively fed for 1 week and then randomly divided into 5 groups, with 10 rats in each group.
# Model group: the rats were fed with 2.5 ml/kg PBS by gavage daily for 10 consecutive days; Bacterial agent group 1: the rats were fed with 2.5 ml/kg AM25-6 bacterial solution (1×10^9 cfu/ml) by gavage daily for 10 consecutive days;
# Bacterial agent group 2: the rats were fed with 2.5 ml/kg DSM 17244 bacterial solution (1×10^9 cfu/ml) by gavage daily for 10 consecutive days;
# Bacterial agent group 3: the rats were fed with 2.5 ml/kg DSM 28733 bacterial solution (1×10^9 cfu/ml) by gavage daily for 10 consecutive days;
# FuFangDanShen tablet group: the rats were fed with 2 g/kg FuFangDanShen tablet (SFDA approval number Z21020381, Tianjin Tasly (Liaoning) Pharmaceutical Co., Ltd.) by gavage daily for 10 consecutive days.
# For each group, the standard lead I electrocardiogram was recorded post 1 hour of last administration, followed by sublingual intravenous injection (iv.) with pituitrin (SFDA approval number H31022259, specifications: 2 ml: 6 units, from Shanghai First Biochemical & Pharmaceutical Industry Co., Ltd.) in 1 unit/kg (in a volume of 1 ml/kg) within 15 seconds, after which the change of electrocardiogram was recorded post 5 seconds, 15 seconds, 30 seconds, 1 minute, 2 minutes, 3 minutes and 5 minutes, and the change of ST segment displacement before and after administration of pituitrin was measured and compared, with statistical analysis by using t test between groups.
# [7] = Week 9, *P<0.05 relative to model group
Substance,"Weight of mice, Week 1 [1]","Weight of mice, Week 3 [1]","Weight of mice, Week 5 [1]","Weight of mice, Week 7 [1]","Weight of mice, Week 9 [1]",Body weight ([2]; Week 1),Body weight ([2]; Week 3),Body weight ([2]; Week 5),Body weight ([2]; Week 7),"Body weight [2, 7]","Fasting blood glucose, Week 1 [3]","Fasting blood glucose, Week 3 [3]","Fasting blood glucose, Week 5 [3]","Fasting blood glucose, Week 7 [3]","Fasting blood glucose, Week 9 [3]","Blood glucose in OGTT, 0 minute [4]","Blood glucose in OGTT, 30 minutes [4]","Blood glucose in OGTT, 60 minutes [4]","Blood glucose in OGTT, 90 minutes [4]","Blood glucose in OGTT, 120 minutes [4]",further results
Anaerofustis stercorihominis DSM 17244 [Bacterial agent group 2],20.15 g,21.78 g,22.99 g,23.88 g,25.62* g,21.55 g,22.43 g,23.78 g,25.13 g,25.58* g,15.8 mmol/L,15.7 mmol/L,14.6 mmol/L,11.7* mmol/L,9.0** mmol/L,9.7 mmol/L,18.0 mmol/L,14.9 mmol/L,12.1* mmol/L,9.9 mmol/L,blood viscosity [5]: 1.29*; HDLC (high-density lipoprotein) [5]: 3.219 mmol/L; LDLC (low-density lipoprotein) [5]: 1.585* mmol/L; TC (total cholesterol) [5]: 4.021* mmol/L; TG (triglyceride) [5]: 0.933* mmol/L; ST-segment displacement (±S) [6]: 0.018 ± 0.012** mv
Anaerofustis stercorihominis AM25-6 [Bacterial agent group 1],21.13 g,22.59 g,23.98 g,24.13 g,25.47* g,22.34 g,23.57 g,24.26 g,25.53 g,25.97* g,16.1 mmol/L,15.6 mmol/L,13.2* mmol/L,10.4** mmol/L,8.6** mmol/L,9.1 mmol/L,17.8 mmol/L,15.9 mmol/L,11.5* mmol/L,10.1 mmol/L,blood viscosity [5]: 1.26*; HDLC (high-density lipoprotein) [5]: 3.219 mmol/L; LDLC (low-density lipoprotein) [5]: 1.454* mmol/L; TC (total cholesterol) [5]: 4.014* mmol/L; TG (triglyceride) [5]: 0.893* mmol/L; ST-segment displacement (±S) [6]: 0.017 ± 0.011** mv
Anaerofustis stercorihominis DSM 28733 [Bacterial agent group 3],21.19 g,22.44 g,23.78 g,24.19 g,25.67* g,21.76 g,23.36 g,24.57 g,25.14 g,25.45* g,16.7 mmol/L,15.5 mmol/L,13.6* mmol/L,10.4** mmol/L,7.8** mmol/L,9.6 mmol/L,18.2 mmol/L,15.6 mmol/L,11.7* mmol/L,10.2 mmol/L,blood viscosity [5]: 1.25*; HDLC (high-density lipoprotein) [5]: 3.311 mmol/L; LDLC (low-density lipoprotein) [5]: 1.423* mmol/L; TC (total cholesterol) [5]: 4.017* mmol/L; TG (triglyceride) [5]: 0.912* mmol/L; ST-segment displacement (±S) [6]: 0.020 ± 0.012** mv
